Experimental data as given in article PMC6521623, “DIRAS3-Derived Peptide Inhibits Autophagy in Ovarian Cancer Cells by Binding to Beclin1” (Cancers, 2019).
Ends that are not written are not given here.

B1: DIRAS3 switch II region peptide on the DIRAS3 peptide array (residues 93-107) (peptide, UniProt O95661 93-107, looked up)
peptide: KSGDGNRALQRHVIA
notes: source: synthetic peptide, SPOT synthesis on membrane (MultiPep RS robot)
B2: DIRAS3 N-terminus peptides on the DIRAS3 peptide array (residues 15-33) (peptide, UniProt O95661 15-33, looked up)
peptide: KRLRLLPALLILRAFKPHR
notes: DIRAS3, residues 15-33 (N-terminus), a stretch covered by overlapping 15mer peptides of an array covering residues 1-229; The stretch is longer than one 15mer, so several overlapping array spots are meant; also called N-terminus of DIRAS3 (residues 15-33); source: synthetic peptide, SPOT synthesis on membrane (MultiPep RS robot)

Legend:
full-length Beclin1 = target: T1, full-length Beclin1 (Homo sapiens, UniProt Q14457); test: SPR affinity of biotinylated D3S2 peptide for Beclin1; type: binding; conditions: SPR Biacore 3000, 25 °C, c-terminal biotinylated D3S2 on SA chip, Beclin1 10 to 270 nM, Langmuir 1:1 fit, unit inferred
T1 construct: His tag (pQTEV vector, TEV site) (cleaved yes); made in house; host or cells: Escherichia coli BL21 (DE3), by analogy with the DIRAS2/3 chimera
T1 sequence (Q14457 whole entry): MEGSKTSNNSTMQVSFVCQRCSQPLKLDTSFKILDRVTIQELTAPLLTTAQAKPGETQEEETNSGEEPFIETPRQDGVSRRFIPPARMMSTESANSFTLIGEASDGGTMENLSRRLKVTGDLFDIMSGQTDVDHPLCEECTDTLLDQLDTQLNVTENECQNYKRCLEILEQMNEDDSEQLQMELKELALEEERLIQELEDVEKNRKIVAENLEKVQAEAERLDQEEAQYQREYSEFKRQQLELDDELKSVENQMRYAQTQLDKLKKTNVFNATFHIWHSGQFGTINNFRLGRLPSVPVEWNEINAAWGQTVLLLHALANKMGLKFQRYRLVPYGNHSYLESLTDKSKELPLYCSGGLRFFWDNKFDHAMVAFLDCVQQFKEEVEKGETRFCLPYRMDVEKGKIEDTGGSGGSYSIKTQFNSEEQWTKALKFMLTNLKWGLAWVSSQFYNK
Procedure: A DIRAS2/3 chimera construct was generated by replacing the amino acid residues 92–108 of DIRAS3 with 62–78 amino acid residues of DIRAS2. The DIRAS2/3 chimera construct was cloned into pQTEV vector using ligation-independent cloning and transformed into BL21 (DE3) Escherichia coli cells. Cells carrying the DIRAS2/3 chimera constructs were grown at 37 °C until the OD at 600 nm (OD600) reached to 0.6 and protein expression was induced with 0.5 mM isopropyl β-D-1-thiogalactopyranoside. Cultures were grown for an additional 12 h at 18 °C and harvested by centrifugation. Cells were resuspended in lysis buffer containing 50 mM Tris (pH 7.5), 150 mM sodium chloride, 10 mM magnesium chloride, 10 mM Imidazole, 5% glycerol and 1 mM β-mercaptoethanol and lysed using a cell disrupter (Constant Systems, Northamptonshire, UK). The lysate was cleared by centrifugation at 35,000 × g for 2 h at 4 °C. Cleared lysate was passed through a 0.22-μm filter. […]
SPR experiments were performed using a Biacore 3000 optical biosensor (GE Healthcare/Biacore AB) at 25 °C. […] Reference and buffer corrected SPR response was collected and the data was analyzed using Biacore evaluation software. The kinetic parameters and KD value were determined by fitting the sensorgram to a Langmuir 1:1 binding model (BIAevaluation version 4.1.1, GE Healthcare/Biacore AB, Marlborough, MA, USA).

[1] = target: T2, Beclin1 recombinant protein (UniProt Q14457 1-450); test: peptide or protein array; 15mer peptide array of DIRAS3 residues 1-229 on membrane, overlaid with recombinant Beclin1 at 1 µg/mL in 1% BSA/PBS, 2 h at room temperature; detected with primary and secondary antibody, HRP; conditions: both partners purified
T2 construct: Beclin1 (BECN1); called full-length Beclin1 in the SPR experiment; The construct is not described beyond 'produced in a similar fashion'; For the chimera the His tag was cleaved with TEV protease; whether this also holds for Beclin1 is surmised; also called BECN1; full-length Beclin1; source: recombinant
T2 sequence (Q14457 whole entry, the tested form may be a part): as the sequence (Q14457 whole entry) above

| Molecule | kon (full-length Beclin1; read-out: association rate constant (ka)) | koff (full-length Beclin1; read-out: dissociation rate constant (kd)) | binding result [1] |
| --- | --- | --- | --- |
| SKSGDGNRALQRHVIAR [D3S2] | 62200 M⁻¹ s⁻¹ | 0.000125 s⁻¹ | – |
| B1 | – | – | binds |
| B2 | – | – | binds |
